Data from paper PMC6751662, “Pharmacological and functional similarities of the human neuropeptide Y system in C. elegans challenges phylogenetic views on the FLP/NPR system” (Cell Communication and Signaling : CCS, 2019).

Columns and labels:
Format in all cases: cell-based
[1] = biological target: T1, QRFPR (Homo sapiens, UniProt Q96P65); assay: IP accumulation assay, endogenous Gαq coupling, QRFPR; conditions: transiently transfected HEK293 cells, mean of at least three independent experiments
T1 construct: expressed in transfected cells; host or cells: HEK293, transient
T1 sequence (Q96P65 1-431): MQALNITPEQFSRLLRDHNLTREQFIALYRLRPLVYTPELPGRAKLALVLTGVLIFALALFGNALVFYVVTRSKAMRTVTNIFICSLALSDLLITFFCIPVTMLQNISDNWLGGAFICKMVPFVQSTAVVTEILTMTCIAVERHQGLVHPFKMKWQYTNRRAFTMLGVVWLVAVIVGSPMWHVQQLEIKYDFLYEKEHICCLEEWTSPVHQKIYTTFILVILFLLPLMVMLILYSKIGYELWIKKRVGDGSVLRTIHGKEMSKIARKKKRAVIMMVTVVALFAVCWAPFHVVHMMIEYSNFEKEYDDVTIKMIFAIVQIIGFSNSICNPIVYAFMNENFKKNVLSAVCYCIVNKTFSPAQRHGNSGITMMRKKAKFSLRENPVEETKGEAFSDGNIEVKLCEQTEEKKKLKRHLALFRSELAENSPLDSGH
Description: (§1) For measuring IP accumulation, HEK293 cells grown to 70–80% confluency in 6-well plates were transiently co-transfected using Metafectene Pro (2.5 μl/μg DNA; Biontex) with plasmids containing receptor and/or mock (empty pcDNA3.1) (for endogenous Gq-coupling) using 4 μg total DNA in a ratio of 3:1 following the manufacturer’s instructions. For testing Gα16- and GαΔ6qi4myr-coupling, plasmids encoding the corresponding Gα protein were co-transfected instead of mock. Gα16 is naturally promiscuous and stimulates the phospholipase C (PLC) pathway leading to IP production, while the exchange of the C-terminal four amino acids of Gαq for the corresponding residues of Gαi1 in the chimeric GαΔ6qi4myr confers the ability to couple to Gi/o protein-preferring receptors but still stimulate PLC, thus specifically redirecting downstream cellular signaling. 16 h post transfection, the cells were seeded into white 384-well plates at a density of 20,000 cells/well. Media was removed 24 h later and the cells were incubated with the indicated concentration of peptides for 1 h in HBSS + 20 mM LiCl. IP accumulation was measured with the HTRF-based IP-One Gq kit (Cisbio) on a microplate reader (Tecan Spark).
(§2) For in vitro activation, data is presented as mean ± SEM of at least three independent experiments conducted in technical triplicate. […] For the C. elegans NPRs, we considered the strongest response elicited by any of the peptides downstream of a particular receptor as the receptor’s maximal signal. This may or may not be the biological maximum that can be reached by the ‘true’ endogenous agonist. For the human receptors, the response to the established endogenous agonist reflected the maximal signal.

[2] = biological target: T2, PrRPR (Homo sapiens, UniProt P49683); assay: IP accumulation assay, endogenous Gαq coupling, PrRPR; conditions: transiently transfected HEK293 cells, mean of at least three independent experiments
T2 construct: expressed in transfected cells; host or cells: HEK293, transient
T2 sequence (P49683 1-370): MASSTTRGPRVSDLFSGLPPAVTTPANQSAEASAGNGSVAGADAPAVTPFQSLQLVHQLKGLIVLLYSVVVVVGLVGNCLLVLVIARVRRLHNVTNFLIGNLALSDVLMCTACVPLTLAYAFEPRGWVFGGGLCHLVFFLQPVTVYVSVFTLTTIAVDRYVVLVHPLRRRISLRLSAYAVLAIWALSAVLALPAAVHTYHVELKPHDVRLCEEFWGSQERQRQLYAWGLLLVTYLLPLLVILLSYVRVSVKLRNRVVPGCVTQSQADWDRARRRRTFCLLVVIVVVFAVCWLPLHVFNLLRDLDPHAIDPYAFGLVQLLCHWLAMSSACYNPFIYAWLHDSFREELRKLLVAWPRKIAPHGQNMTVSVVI
Description: as §1, §2

[3] = biological target: T3, Y4R (Homo sapiens, UniProt P50391); assay: cAMP reporter gene assay, Gi/o, Y4R; conditions: for cAMP assay (Gi/o), Y4R: 4 h, lower = higher Gi/o activity, transfected HEK293, CRE-luciferase, mean of >=3 independent experiments; for Gi (Gs) [x-fold of forskolin], Y4R, mean: inhibition of cAMP production induced by 1 µM forskolin (set to 1.00), transiently transfected HEK293 cells, mean of at least three independent experiments
T3 construct: expressed in transfected cells; host or cells: HEK293, transient
Description: (§3) Activation of Gs and Gi/o was assessed with a cAMP reporter gene assay. HEK293 cells grown to 70–80% confluency in 6-well plates were transiently co-transfected with vectors encoding the receptor and the cAMP reporter gene plasmid pGL4.29 [luc2P/CRE/Hygro] (Promega; 4 μg total, 1:1 ratio) using Metafectene Pro (3 μl/μg DNA; Biontex) following the manufacturer’s instructions. 16 h post transfection, the cells were seeded into white 384-well plates at a density of 20,000 cells/well. On the next day, the medium was removed and the cells were stimulated with 20 μl of peptide solution (or forskolin as positive control) in serum-free DMEM for 4 h. For measuring Gi/o activity, the peptide solutions additionally contained 1 μM forskolin to elevate cellular cAMP levels. After incubation, the luciferase substrate OneGlo in lysis buffer (Promega) was added and the luminescence was measured in a microplate reader Tecan Spark (Tecan). Data were analyzed with GraphPad Prism 5.03 and are shown as fold of basal or fold of forskolin in case of Gαi/o activity.
as §2

[4] = biological target: T4, Y1R (Homo sapiens, UniProt P25929); assay: cAMP reporter gene assay, Gi/o, Y1R; conditions: for cAMP assay (Gi/o), Y1R: 4 h, lower = higher Gi/o activity, transfected HEK293, CRE-luciferase, mean of >=3 independent experiments; for Gi (Gs) [x-fold of forskolin], Y1R, mean: inhibition of cAMP production induced by 1 µM forskolin (set to 1.00), transiently transfected HEK293 cells, mean of at least three independent experiments
T4 construct: expressed in transfected cells; host or cells: HEK293, transient
T4 sequence (P25929 1-384): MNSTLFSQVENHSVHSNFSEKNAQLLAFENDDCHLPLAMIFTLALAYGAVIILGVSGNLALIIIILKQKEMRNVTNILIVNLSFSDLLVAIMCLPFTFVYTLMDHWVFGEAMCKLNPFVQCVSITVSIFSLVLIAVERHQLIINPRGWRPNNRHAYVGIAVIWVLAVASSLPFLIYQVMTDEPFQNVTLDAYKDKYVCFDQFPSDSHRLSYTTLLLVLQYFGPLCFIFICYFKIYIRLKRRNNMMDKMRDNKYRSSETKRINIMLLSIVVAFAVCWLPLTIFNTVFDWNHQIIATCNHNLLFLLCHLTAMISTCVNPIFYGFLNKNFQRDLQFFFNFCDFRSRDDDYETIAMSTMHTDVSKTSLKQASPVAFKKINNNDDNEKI
Description: as §3, §2

[5] = 0.1 µM peptide + 1 µM forskolin (set to 1.00)
[6] = 10 µM peptide + 1 µM forskolin (set to 1.00)

T3 sequence (P50391 whole entry): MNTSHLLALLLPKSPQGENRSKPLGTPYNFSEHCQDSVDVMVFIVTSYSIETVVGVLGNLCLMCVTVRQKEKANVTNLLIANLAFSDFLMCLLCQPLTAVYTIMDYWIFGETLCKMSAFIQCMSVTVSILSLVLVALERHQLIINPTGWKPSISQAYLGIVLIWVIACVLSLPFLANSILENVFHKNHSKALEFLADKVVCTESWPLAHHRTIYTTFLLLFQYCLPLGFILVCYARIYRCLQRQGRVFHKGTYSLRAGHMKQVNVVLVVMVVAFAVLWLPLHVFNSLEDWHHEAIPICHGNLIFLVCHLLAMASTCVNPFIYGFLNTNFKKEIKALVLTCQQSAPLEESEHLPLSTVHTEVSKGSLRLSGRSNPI

## ASPSFIRF-NH2 [FLP-4-2, C. elegans FMRFamide-like peptide, C-terminally amidated, synthesized by SPPS]
[1]; 0.1 µM peptide
  IP accumulation, x-fold of basal (mean), QRFPR#: 1.26 x-fold of basal
[1]; 10 µM peptide
  IP accumulation, x-fold of basal (mean), QRFPR#: 0.98 x-fold of basal
[2]; 0.1 µM peptide
  IP accumulation, x-fold of basal (mean), PrRPR#: 0.85 x-fold of basal
[2]; 10 µM peptide
  IP accumulation, x-fold of basal (mean), PrRPR#: 0.86 x-fold of basal

## AGSDPNFLRF-NH2 [FLP-1-2, C. elegans FMRFamide-like peptide, C-terminally amidated, synthesized by SPPS]
[1]; 0.1 µM peptide
  IP accumulation, x-fold of basal (mean), QRFPR#: 1.07 x-fold of basal
[1]; 10 µM peptide
  IP accumulation, x-fold of basal (mean), QRFPR#: 0.92 x-fold of basal
[2]; 0.1 µM peptide
  IP accumulation, x-fold of basal (mean), PrRPR#: 1.04 x-fold of basal
[2]; 10 µM peptide
  IP accumulation, x-fold of basal (mean), PrRPR#: 1.27 x-fold of basal

## TSGPLGNLAEELNGYSRKKGGFSFRF-NH2 [QRFP26, human pyroglutamylated RFamide peptide, 26 residues, reference compound]
[1]; 0.1 µM peptide
  IP accumulation, x-fold of basal (mean), QRFPR#: 22.77 x-fold of basal
[1]; 10 µM peptide
  IP accumulation, x-fold of basal (mean), QRFPR#: 24.26 x-fold of basal
[2]; 0.1 µM peptide
  IP accumulation, x-fold of basal (mean), PrRPR#: 1.06 x-fold of basal
[2]; 10 µM peptide
  IP accumulation, x-fold of basal (mean), PrRPR#: 1.91 x-fold of basal

## NPENDTPFGTMRF-NH2 [FLP-3-4, C. elegans FMRFamide-like peptide, C-terminally amidated, synthesized by SPPS]
[1]; 0.1 µM peptide
  IP accumulation, x-fold of basal (mean), QRFPR#: 1.42 x-fold of basal
[1]; 10 µM peptide
  IP accumulation, x-fold of basal (mean), QRFPR#: 1.52 x-fold of basal
[2]; 0.1 µM peptide
  IP accumulation, x-fold of basal (mean), PrRPR#: 1.86 x-fold of basal
[2]; 10 µM peptide
  IP accumulation, x-fold of basal (mean), PrRPR#: 0.96 x-fold of basal

## EASAFGDIIGELKGKGLGGRMRF-NH2 [FLP-27, NPY-like C. elegans FLP with C-terminal RxRF/Ya signature]
[1]; 0.1 µM peptide
  IP accumulation, x-fold of basal (mean), QRFPR#: 0.87 x-fold of basal
[1]; 10 µM peptide
  IP accumulation, x-fold of basal (mean), QRFPR#: 0.95 x-fold of basal
[2]; 0.1 µM peptide
  IP accumulation, x-fold of basal (mean), PrRPR#: 0.93 x-fold of basal
[2]; 10 µM peptide
  IP accumulation, x-fold of basal (mean), PrRPR#: 0.91 x-fold of basal
[3]; [5]
  cAMP assay (Gi/o), Y4R: 1.01 x-fold of forskolin
[3]; [6]
  cAMP assay (Gi/o), Y4R: 0.75 x-fold of forskolin
[4]; [5]
  cAMP assay (Gi/o), Y1R: 0.88 x-fold of forskolin
[4]; [6]
  cAMP assay (Gi/o), Y1R: 0.23 x-fold of forskolin

## PrRP31 [reference compound]
[1]; 0.1 µM peptide
  IP accumulation, x-fold of basal (mean), QRFPR#: 0.58 x-fold of basal
[1]; 10 µM peptide
  IP accumulation, x-fold of basal (mean), QRFPR#: 0.59 x-fold of basal
[2]; 0.1 µM peptide
  IP accumulation, x-fold of basal (mean), PrRPR#: 25.49 x-fold of basal
[2]; 10 µM peptide
  IP accumulation, x-fold of basal (mean), PrRPR#: 25.47 x-fold of basal

## GLGPRPLAF-NH2 [[R8A]FLP-21, R8A control peptide of FLP-21, penultimate arginine exchanged for an alanine]
[3]; 0.1 µM peptide
  Gi (Gs) [x-fold of forskolin], Y4R, mean: 0.81 x-fold of forskolin
[3]; 10 µM peptide
  Gi (Gs) [x-fold of forskolin], Y4R, mean: 0.85 x-fold of forskolin
[4]; 0.1 µM peptide
  Gi (Gs) [x-fold of forskolin], Y1R, mean: 0.85 x-fold of forskolin
[4]; 10 µM peptide
  Gi (Gs) [x-fold of forskolin], Y1R, mean: 0.76 x-fold of forskolin

## RGPSGPLAF-NH2 [[R8A]FLP-15-2]
[3]; 0.1 µM peptide
  Gi (Gs) [x-fold of forskolin], Y4R, mean: 0.79 x-fold of forskolin
[3]; 10 µM peptide
  Gi (Gs) [x-fold of forskolin], Y4R, mean: 0.94 x-fold of forskolin
[4]; 0.1 µM peptide
  Gi (Gs) [x-fold of forskolin], Y1R, mean: 0.72 x-fold of forskolin
[4]; 10 µM peptide
  Gi (Gs) [x-fold of forskolin], Y1R, mean: 0.71 x-fold of forskolin

## APLEPVYPGDNATPEQMAQYAADLRRYINMLTRPRY-NH2 [PP, human pancreatic polypeptide, reference compound]
[1]; 0.1 µM peptide
  IP accumulation, x-fold of basal (mean), QRFPR#: 0.75 x-fold of basal
[1]; 10 µM peptide
  IP accumulation, x-fold of basal (mean), QRFPR#: 0.75 x-fold of basal
[2]; 0.1 µM peptide
  IP accumulation, x-fold of basal (mean), PrRPR#: 0.99 x-fold of basal
[2]; 10 µM peptide
  IP accumulation, x-fold of basal (mean), PrRPR#: 1.01 x-fold of basal

## TPDINPAWYASRGIRPVGRF-NH2 [PrRP20, human prolactin-releasing peptide, 20 residues, reference compound]
[1]; 0.1 µM peptide
  IP accumulation, x-fold of basal (mean), QRFPR#: 0.59 x-fold of basal
[1]; 10 µM peptide
  IP accumulation, x-fold of basal (mean), QRFPR#: 0.63 x-fold of basal
[2]; 0.1 µM peptide
  IP accumulation, x-fold of basal (mean), PrRPR#: 26.01 x-fold of basal
[2]; 10 µM peptide
  IP accumulation, x-fold of basal (mean), PrRPR#: 27.38 x-fold of basal

## APKPKFIRF-NH2 [FLP-5-1, C. elegans FMRFamide-like peptide, C-terminally amidated, synthesized by SPPS]
[1]; 0.1 µM peptide
  IP accumulation, x-fold of basal (mean), QRFPR#: 0.95 x-fold of basal
[1]; 10 µM peptide
  IP accumulation, x-fold of basal (mean), QRFPR#: 1.21 x-fold of basal
[2]; 0.1 µM peptide
  IP accumulation, x-fold of basal (mean), PrRPR#: 1.20 x-fold of basal
[2]; 10 µM peptide
  IP accumulation, x-fold of basal (mean), PrRPR#: 1.41 x-fold of basal

## APLEGFEDMSGFLRTIDGIQKPRF-NH2 [FLP-33, NPY-like C. elegans FLP with C-terminal RxRF/Ya signature]
[1]; 0.1 µM peptide
  IP accumulation, x-fold of basal (mean), QRFPR#: 0.91 x-fold of basal
[1]; 10 µM peptide
  IP accumulation, x-fold of basal (mean), QRFPR#: 0.80 x-fold of basal
[2]; 0.1 µM peptide
  IP accumulation, x-fold of basal (mean), PrRPR#: 0.91 x-fold of basal
[2]; 10 µM peptide
  IP accumulation, x-fold of basal (mean), PrRPR#: 0.88 x-fold of basal
[3]; [5]
  cAMP assay (Gi/o), Y4R: 0.95 x-fold of forskolin
[3]; [6]
  cAMP assay (Gi/o), Y4R: 0.90 x-fold of forskolin
[4]; [5]
  cAMP assay (Gi/o), Y1R: 0.94 x-fold of forskolin
[4]; [6]
  cAMP assay (Gi/o), Y1R: 0.73 x-fold of forskolin
